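48-hour exposure; five concentrations; linearly interpolated endpoints. GI50 is the concentration that inhibits growth by half. TGI is the concentration that stops growth completely.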 Where a SMILES comes first, the peptide text is derived from it. The star is where a group is joined. Boc = CC(C)(C)OC(=O)*
What was measured:
Experiment in all cases: DTP human tumour cell line panel, 48 h
HCC-2998 colon = system: HCC-2998 colon
HCT-116 colon = system: HCT-116 colon
HCT-15 colon = system: HCT-15 colon
HOP-62 NSCLC = system: HOP-62 NSCLC
LOX IMVI melanoma = system: LOX IMVI melanoma
MDA-MB-435 = system: MDA-MB-435
SW-620 colon = system: SW-620 colon
U251 CNS = system: U251 CNS
UACC-62 melanoma = system: UACC-62 melanoma

Structure (SMILES) | TGI (HCC-2998 colon) | TGI (HCT-116 colon) | TGI (HCT-15 colon) | TGI (HOP-62 NSCLC) | TGI (LOX IMVI melanoma) | TGI (MDA-MB-435) | TGI (SW-620 colon) | TGI (U251 CNS) | TGI (UACC-62 melanoma) | GI50 (HCC-2998 colon) | GI50 (HCT-116 colon) | GI50 (HCT-15 colon) | GI50 (LOX IMVI melanoma) | GI50 (MDA-MB-435) | GI50 (SW-620 colon) | GI50 (UACC-62 melanoma) | GI50 (U251 CNS)
O=C1OC2(C(F)(F)F)Oc3ccccc3CN2C12CCCCC2 (stereo not drawn) | > 100 µM | 82.8 µM | 84.1 µM | 91.9 µM | 52.7 µM | > 100 µM | > 100 µM | 84.4 µM | > 100 µM | – | – | – | – | – | – | – | –
Cc1cc2ccccc2n1CC(=O)N1CCCC1 | > 100 µM | > 100 µM | > 100 µM | > 100 µM | > 100 µM | > 100 µM | > 100 µM | > 100 µM | > 100 µM | – | – | – | – | – | – | – | –
CC1CC[C@@]2(OC1)O[C@H]1C[C@H]3[C@@H]4CC[C@H]5C[C@@H](OC6OC(CO)C(OC7OC(CO)C(OC8OC(CO)C(O)C(OC9OC(C)C(OC%10OC(C)C(O)C(O)C%10O)C(O)C9O)C8OC8OCC(O)C(O)C8O)C(O)C7O)C(O)C6O)CC[C@]5(C)[C@H]4CC(=O)[C@]3(C)[C@H]1[C@@H]2C (stereo partly drawn) | 32.8 µM | 52.9 µM | 35.2 µM | 45.5 µM | 53.5 µM | 35.7 µM | 42 µM | 33.3 µM | 32.8 µM | – | – | – | – | – | – | – | –
CCCC(CC)c1c(O)c(O)c(C(CC)CCC)c(C(CC)CCC)c1C(CC)CCC (stereo not drawn) | > 10 µM | > 10 µM | > 10 µM | > 10 µM | > 10 µM | > 10 µM | > 10 µM | > 10 µM | > 10 µM | – | – | – | – | – | – | – | –
COc1ccc(Oc2nc3ccc(C(F)(F)F)cc3nc2-c2ccccc2)cc1 | > 100 µM | > 100 µM | > 100 µM | > 100 µM | > 100 µM | > 100 µM | > 100 µM | > 100 µM | > 100 µM | – | – | – | – | – | – | – | –
COC(=O)C(Cc1c[nH]c2ccccc12)NC(=O)C(Cc1c[nH]c2ccccc12)NC(=O)C(Cc1c[nH]c2ccccc12)NC(=O)C(Cc1c[nH]c2ccccc12)NC(=O)OC(C)(C)C (stereo not drawn) (Boc-WWWW-OMe; configuration not given here) | 38.5 µM | 44.2 µM | > 100 µM | 67 µM | 28 µM | > 100 µM | 62.8 µM | 34.6 µM | 38.4 µM | – | – | – | – | – | – | – | –
CCOC(=O)c1c2c(n(-c3ccc(OC)cc3)c1C)C(=O)C(=O)c1ccccc1-2 | 3.38 µM | 3 µM | 8.13 µM | 3.46 µM | 2.49 µM | 0.351 µM | 8.09 µM | 2.63 µM | 3.28 µM | – | – | – | – | – | – | – | –
CCc1nn(S(=O)(=O)c2ccc(C)cc2)c2c1CS(=O)(=O)CC2 | – | > 100 µM | > 100 µM | > 100 µM | – | > 100 µM | > 100 µM | > 100 µM | > 100 µM | – | – | – | – | – | – | – | –
CC1(C)[C@@H](Cn2cnc3c(=O)[nH]c(N)nc32)CC[C@@]1(C)CO | > 100 µM | > 100 µM | > 100 µM | > 100 µM | > 100 µM | > 100 µM | > 100 µM | > 100 µM | > 100 µM | – | – | – | – | – | – | – | –
COC(=O)/C=C\C(C#N)(C#N)N=Cc1ccc(C)s1 | 32.9 µM | 2.65 µM | 3.66 µM | 28.5 µM | 3.19 µM | 7.65 µM | 2.14 µM | 28.8 µM | 31 µM | – | – | – | – | – | – | – | –
Fc1ccc(C2CC(c3cccc(Nc4ccncc4)c3)=NN2c2cc(Cl)cc(Cl)c2)cc1 (stereo not drawn) | 2.96 µM | 3.15 µM | 3.47 µM | – | 2.94 µM | 3.13 µM | 3.29 µM | – | 3.27 µM | 1.6 µM | 1.66 µM | 1.77 µM | 1.6 µM | 1.68 µM | 1.75 µM | 1.74 µM | –
OCC(O)C1OC2CC1Nc1ccccc1N2 (stereo not drawn) | > 100 µM | > 100 µM | > 100 µM | > 100 µM | > 100 µM | > 100 µM | > 100 µM | > 100 µM | > 100 µM | – | – | – | – | – | – | – | –
COCN1CCN=c2c1c1c3c(c4ccccc4n23)CCC1 | > 100 µM | > 100 µM | > 100 µM | > 100 µM | > 100 µM | > 100 µM | > 100 µM | > 100 µM | > 100 µM | – | – | – | – | – | – | – | –
COc1ccccc1NC(=S)N/N=C(/C)c1ccccn1 | > 100 µM | 13.8 µM | > 100 µM | 36.7 µM | 67.2 µM | > 100 µM | > 100 µM | > 100 µM | – | – | – | – | – | – | – | – | –
CC1(C)CN(c2ccccc2)C(=O)C1OC(=O)[C@@]1(C)C[C@@H]2C=C[C@H]1C2 (stereo partly drawn) | – | 35.8 µM | 55.1 µM | 40.8 µM | 40.3 µM | 42 µM | > 100 µM | 43.9 µM | 41.4 µM | – | – | – | – | – | – | – | –
Cc1cccc2nc3cccc(C(=O)NCCC[N+](C)(CCCNC(=O)c4cccc5nc6cccc(C)c6nc45)Cc4c([N+](=O)[O-])ncn4C)c3nc12 | 790 µM | > 1100 µM | > 1100 µM | – | 18.8 µM | > 1100 µM | > 1100 µM | > 1100 µM | > 1100 µM | – | – | 13.6 µM | – | 191 µM | 49.3 µM | 38.8 µM | 18.2 µM
CC(NC(=O)OCc1ccccc1)NC(=O)C(CC(=O)OC(C)(C)C)NC(=O)OC(C)(C)C (stereo not drawn) | – | > 100 µM | > 100 µM | > 100 µM | > 100 µM | > 100 µM | > 100 µM | > 100 µM | > 100 µM | – | – | – | – | – | – | – | –
O=c1c2ccccc2n2nnc3ccc(NCCCNCCNCCCNc4ccc5nnn6c7ccccc7c(=O)c4c56)c1c32 | 6.51 µM | > 38.5 µM | > 26.4 µM | 12.3 µM | 24 µM | > 50 µM | > 22.6 µM | – | > 50 µM | – | – | – | – | – | – | – | –
CC(C)(C)OC(=O)NC(Cc1ccc(O)cn1)C(N)=O (stereo not drawn) | > 100 µM | > 100 µM | > 100 µM | > 100 µM | > 100 µM | > 100 µM | > 100 µM | > 100 µM | – | – | – | – | – | – | – | – | –
CN1C/C(=C\c2ccc(Cl)cc2)C(=O)/C(=C/c2ccc(Cl)cc2)C1 | > 100 µM | 0.482 µM | – | > 28.5 µM | 0.612 µM | > 100 µM | > 100 µM | 2.46 µM | 8.35 µM | – | – | – | – | – | – | – | –
Cc1nccn1S(=O)(=O)c1ccc(Br)cc1Br | – | > 100 µM | > 100 µM | – | > 100 µM | 46 µM | > 100 µM | > 100 µM | > 100 µM | – | – | – | – | – | – | – | –

Reference: PubChem BioAssay (NCI)
